IC50 data for one compound are collected here from BindingDB's records for doi:10.1021/acs.biochem.6b00486 (Academia Sinica, 2016).

In general, IC50 refers to the midpoint of a concentration-inhibition curve.

Test [1] concerns the target T1, IspB protein (Escherichia coli (strain 55989 / EAEC), UniProt B7LHQ0). As to the kind of experiment: Radioactive Assay.
The target of test [2] is T1, IspB protein. As to the kind of experiment: Fluorescent Assay.

Molecules are shown by their SMILES.

T1 sequence (B7LHQ0 whole entry): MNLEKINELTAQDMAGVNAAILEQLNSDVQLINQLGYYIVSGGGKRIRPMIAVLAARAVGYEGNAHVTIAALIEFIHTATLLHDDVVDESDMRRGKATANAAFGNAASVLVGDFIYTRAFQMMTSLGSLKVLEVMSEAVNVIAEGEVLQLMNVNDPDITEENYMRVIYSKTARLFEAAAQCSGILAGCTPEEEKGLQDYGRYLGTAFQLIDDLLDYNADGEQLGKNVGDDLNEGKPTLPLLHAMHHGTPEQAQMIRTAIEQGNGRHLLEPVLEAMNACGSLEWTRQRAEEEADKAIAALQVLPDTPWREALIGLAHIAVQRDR

Turning to `O=P(O)(O)C(O)(Cn1ccnc1)P(=O)(O)O`, the IC50 on IspB protein [1] turned out to be 290 nM; at IspB protein [2], 220 nM.
